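Each compound was tested at five concentrations against cells in 96-well plates for 48 hours. Abbreviation: GI50, concentration required for 50% inhibition of growth.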 The source made the active and inactive calls. Cut-off read from the data, not from the text of the source: active = GI50 up to about 1.1 µM and inactive = higher.
How the values were obtained:
Test in all cases: NCI-60 cell line screen, 48 h
[1] = system: A549
[2] = system: SK-MEL-28
[3] = system: TK-10
[4] = system: RXF 393
[5] = system: UACC-257
[6] = system: NCI-H23
[7] = system: DMS-114
[8] = system: HCT-116
[9] = system: NCI-H460
[10] = system: IGROV-1
[11] = system: SN12C
[12] = system: M14
[13] = system: SNB-78
[14] = system: DLD-1
[15] = system: SK-OV-3
[16] = system: NCI-H226
[17] = system: LOX IMVI
[18] = system: EKVX
[19] = system: XF498
[20] = system: M19-MEL
[21] = system: HT-29
[22] = system: HOP-92
[23] = system: HL-60
[24] = system: K562
[25] = system: UO-31
[26] = system: HOP-62
[27] = system: 786-0
[28] = system: UACC-62
[29] = system: RPMI-8226
[30] = system: OVCAR-4
[31] = system: SNB-19
[32] = system: SK-MEL-2
[33] = system: HCT-15
[34] = system: OVCAR-8
[35] = system: HCC 2998
[36] = system: SF-268
[37] = system: MOLT-4
[38] = system: U-251
[39] = system: A498
[40] = system: HOP-18
[41] = system: SF-295
[42] = system: ACHN
[43] = system: SF-539
[44] = system: SK-MEL-5
[45] = system: SW-620
[46] = system: KM-20L2
[47] = system: DMS-273
[48] = system: CCRF-CEM
[49] = system: OVCAR-3
[50] = system: COLO 205
[51] = system: KM12
[52] = system: SNB-75
[53] = system: NCI-H522
[54] = system: OVCAR-5
[55] = system: LXFL 529
[56] = system: Malme-3M
[57] = system: CAKI-1

For `O=C(NCC(=O)N1CCOC1=O)OCc1ccccc1`, the GI50 [1] was > 100 µM (inactive), the GI50 [2] was > 100 µM (inactive) and the GI50 [3] was > 100 µM (inactive). For the same compound, the GI50 [4] was > 100 µM (inactive), the GI50 [5] was > 100 µM (inactive) and the GI50 [6] was > 100 µM (inactive). For the same compound, the GI50 [7] was > 100 µM (inactive), the GI50 [8] was > 100 µM (inactive) and the GI50 [9] was > 100 µM (inactive). For the same compound, the GI50 [10] was > 100 µM (inactive), the GI50 [11] was > 100 µM (inactive) and the GI50 [12] was > 100 µM (inactive). For the same compound, the GI50 [13] was > 100 µM (inactive), the GI50 [14] was > 100 µM (inactive) and the GI50 [15] was > 100 µM (inactive). For the same compound, the GI50 [16] was > 100 µM (inactive), the GI50 [17] was > 100 µM (inactive) and the GI50 [18] was > 100 µM (inactive). For the same compound, the GI50 [19] was > 100 µM (inactive), the GI50 [20] was > 100 µM (inactive) and the GI50 [21] was > 100 µM (inactive). For the same compound, the GI50 [22] was > 100 µM (inactive), the GI50 [23] was > 100 µM (inactive) and the GI50 [24] was > 100 µM (inactive). For the same compound, the GI50 [25] was > 100 µM (inactive), the GI50 [26] was > 100 µM (inactive) and the GI50 [27] was > 100 µM (inactive). The GI50 [28] was > 100 µM (inactive), the GI50 [29] was > 100 µM (inactive) and the GI50 [30] was > 100 µM (inactive). For the same compound, the GI50 [31] was > 100 µM (inactive), the GI50 [32] was > 100 µM (inactive) and the GI50 [33] was greater than 100 µM. The GI50 [34] was > 100 µM (inactive), the GI50 [35] was > 100 µM (inactive) and the GI50 [36] was > 100 µM (inactive). For the same compound, the GI50 [37] was > 100 µM (inactive), the GI50 [38] was > 100 µM (inactive) and the GI50 [39] was > 100 µM (inactive). For the same compound, the GI50 [40] was > 100 µM (inactive), the GI50 [41] was > 100 µM (inactive) and the GI50 [42] was > 100 µM (inactive). For the same compound, the GI50 [43] was > 100 µM (inactive), the GI50 [44] was > 100 µM (inactive) and the GI50 [45] was > 100 µM (inactive). For the same compound, the GI50 [46] was > 100 µM (inactive), the GI50 [47] was > 100 µM (inactive) and the GI50 [48] was > 100 µM (inactive). The GI50 [49] was > 100 µM (inactive), the GI50 [50] was > 100 µM (inactive) and the GI50 [51] was > 100 µM (inactive). The GI50 [52] was > 100 µM (inactive) and the GI50 [53] was > 100 µM (inactive).
For `Cc1ccc(C)c(NC(=O)CCC(=O)CC(=O)C(C)(C)C)c1`, the GI50 [1] was > 100 µM (inactive), the GI50 [2] was > 100 µM (inactive) and the GI50 [3] was > 100 µM (inactive). For the same compound, the GI50 [4] was > 100 µM (inactive), the GI50 [5] was > 100 µM (inactive) and the GI50 [6] was > 100 µM (inactive). For the same compound, the GI50 [7] was > 100 µM (inactive), the GI50 [8] was > 100 µM (inactive) and the GI50 [9] was > 100 µM (inactive). The GI50 [10] was > 100 µM (inactive), the GI50 [11] was > 100 µM (inactive) and the GI50 [12] was > 100 µM (inactive). The GI50 [13] was > 100 µM (inactive), the GI50 [14] was > 100 µM (inactive) and the GI50 [15] was > 100 µM (inactive). The GI50 [17] was > 100 µM (inactive), the GI50 [18] was > 100 µM (inactive) and the GI50 [19] was > 100 µM (inactive). The GI50 [20] was > 100 µM (inactive), the GI50 [21] was > 100 µM (inactive) and the GI50 [22] was > 100 µM (inactive). The GI50 [24] was > 100 µM (inactive), the GI50 [25] was > 100 µM (inactive) and the GI50 [54] was > 100 µM (inactive). For the same compound, the GI50 [55] was > 100 µM (inactive), the GI50 [26] was > 100 µM (inactive) and the GI50 [27] was > 100 µM (inactive). The GI50 [28] was > 100 µM (inactive), the GI50 [29] was > 100 µM (inactive) and the GI50 [30] was > 100 µM (inactive). The GI50 [31] was > 100 µM (inactive), the GI50 [32] was > 100 µM (inactive) and the GI50 [33] was greater than 100 µM. The GI50 [34] was > 100 µM (inactive), the GI50 [35] was > 100 µM (inactive) and the GI50 [36] was > 100 µM (inactive). For the same compound, the GI50 [37] was > 100 µM (inactive), the GI50 [38] was > 100 µM (inactive) and the GI50 [39] was > 100 µM (inactive). The GI50 [40] was > 100 µM (inactive), the GI50 [56] was > 100 µM (inactive) and the GI50 [57] was > 100 µM (inactive). The GI50 [42] was > 100 µM (inactive), the GI50 [43] was > 100 µM (inactive) and the GI50 [44] was > 100 µM (inactive). For the same compound, the GI50 [45] was > 100 µM (inactive), the GI50 [46] was > 100 µM (inactive) and the GI50 [47] was > 100 µM (inactive). For the same compound, the GI50 [48] was > 100 µM (inactive), the GI50 [49] was > 100 µM (inactive) and the GI50 [50] was > 100 µM (inactive). For the same compound, the GI50 [51] was > 100 µM (inactive), the GI50 [52] was > 100 µM (inactive) and the GI50 [53] was > 100 µM (inactive).
For `COc1ccc(/C(Cl)=C(\CN(C)C)c2ccc(OC)c(OC)c2)cc1OC`, the GI50 [2] was > 100 µM (inactive), the GI50 [3] was > 100 µM (inactive) and the GI50 [6] was > 100 µM (inactive). The GI50 [9] was > 100 µM (inactive), the GI50 [10] was > 100 µM (inactive) and the GI50 [11] was > 100 µM (inactive). For the same compound, the GI50 [13] was > 100 µM (inactive), the GI50 [15] was > 100 µM (inactive) and the GI50 [16] was > 100 µM (inactive). For the same compound, the GI50 [17] was > 100 µM (inactive), the GI50 [18] was > 100 µM (inactive) and the GI50 [19] was 19.8 µM (inactive). For the same compound, the GI50 [20] was > 100 µM (inactive), the GI50 [21] was > 100 µM (inactive) and the GI50 [23] was 21.2 µM (inactive). The GI50 [24] was > 100 µM (inactive), the GI50 [25] was > 100 µM (inactive) and the GI50 [55] was > 100 µM (inactive). For the same compound, the GI50 [28] was > 100 µM (inactive), the GI50 [29] was > 100 µM (inactive) and the GI50 [31] was > 100 µM (inactive). For the same compound, the GI50 [32] was 55.6 µM (inactive), the GI50 [33] was greater than 100 µM and the GI50 [34] was > 100 µM (inactive). The GI50 [36] was > 100 µM (inactive), the GI50 [37] was > 100 µM (inactive) and the GI50 [38] was > 100 µM (inactive). For the same compound, the GI50 [39] was > 100 µM (inactive), the GI50 [40] was > 100 µM (inactive) and the GI50 [56] was > 100 µM (inactive). The GI50 [57] was > 100 µM (inactive), the GI50 [41] was > 100 µM (inactive) and the GI50 [42] was > 100 µM (inactive). For the same compound, the GI50 [43] was > 100 µM (inactive), the GI50 [44] was > 100 µM (inactive) and the GI50 [45] was > 100 µM (inactive). The GI50 [46] was > 100 µM (inactive), the GI50 [47] was > 100 µM (inactive) and the GI50 [48] was > 100 µM (inactive). For the same compound, the GI50 [49] was > 100 µM (inactive), the GI50 [50] was > 100 µM (inactive) and the GI50 [53] was > 100 µM (inactive).

Source: ChEMBL document CHEMBL1201862, “PubChem BioAssay data set” (2004)
